Source: US20020197244A1, “Compositions and methods for regulating phagocytosis and ICAM-1 expression” (priority 1998, published 2002)

B1: STI: Soybean trypsin inhibitor, a serine protease inhibitor capable of affecting the PAR-2 pathway (protein, UniProt P01070 25-205, looked up)
Trypsin inhibitor A: DFVLDNEGNPLENGGTYYILSDITAFGGIRAAPTGNERCPLTVVQSRNELDKGIGTIISSPYRIRFIAEGHPLSLKFDSFAVIMLCVGIPTEWSVVEDLPEGPAVKIGENKDAMDGWFRLERVSDDEFNNYKLVFCPQQAEDDKCGDIGISIDHDDGTRRLVVSKNKPLVVQFQKLDKESL

Experiments:
[1] = tested on: macrophage cell line IC-21; experiment: Vybrant Phagocytosis Assay Kit, fluorescein-labeled E. coli K-12 particles; assay type: cell-based; settings: for % effect (ingestion): treated overnight, 100 nM Compound I, 5 μM SLIGRL, 0.1 mg/ml STI, untreated control = 100, one experiment of three; for phagocytosis, dose-response: STI 0, 0.01, 0.1, 1 mg/ml, Compound I 0.01, 0.1, 1 nM, FIG. 4A, 4B
Method: To better quantify the level of phagocytosis, the “Vybrant™ Phagocytosis Assay Kit” of Molecular Probes (Eugene, Oreg.) was used, following manufacturer's instructions, with modification of cell culture conditions for the IC-21 cell line. This kit uses Fluorescein-labeled E. coli K-12 particles, and is designed for quantifying the effects of drugs or other environmental factors on phagocytic functions. Macrophages were treated overnight with 100 nM of Compound I, 5 μM of SLIGRL, or 0.1 mg/ml of STI, all dissolved in PBS. The ability of the treated macrophages to ingest the fluorescent E. coli, as measured by this kit, is documented in Table 1. This experiment was repeated three times.
In order to verify the quantitative nature of the macrophage-phagocytosis assay, a dose-response experiment was performed. Macrophages were treated with 0, 0.01, 0.1 and 1 mg/ml of STI, and the experiment was performed as described in Example 3. […] Each experiment was repeated three times.

[2] = tested on: macrophage cell line IC-21; experiment: Fluorescent microsphere ingestion by macrophages; assay type: cell-based; settings: IC-21 macrophages
Method: (§1) In this example, human primary keratinocytes or the human keratinocyte cell line HaCaT were used as in vitro model systems to study the effect of PAR-2 regulators on keratinocyte phagocytosis. The human primary keratinocytes used are commercially available from Clonetics (San Diego, Calif.). Cells were plated on chamber slides, at 2 chambers/slide and 60,000 cells/chamber. Cells were treated once daily, for two or three days, with Compound I (1μM), SLIGRL (10μM), or vehicle (Phosphate-buffered saline, (“PBS”) from Gibco-BRL (Gaithersburg, Md.). After two or three days of exposure to the test compounds, cells were exposed to Nile-red or FITC fluorescent microspheres, 1 μm in diameter, 50 microspheres/cell, for two hours at 37° C. Microspheres were from Molecular Probes (Eugene, Oreg.), and were processed according to manufacturer's instructions. Following that treatment, cells were incubated with 15% Fetal Bovine Serum (“FBS”, from Gibco-BRL), for 15 minutes at 37° C. and rinsed with PBS. At that time, chambers were separated from the slides, and the slides were covered with glycerol and coverslips. Fluorescent microscopy was performed using a Zeiss Axiovert 35 or a Nikon Optiphot-2 microscope.
The experiment described in Example 1 was repeated using the macrophage cell line IC-21 (obtained from the ATCC), which shares phagocytic characteristics with peritoneal macrophages. As shown for keratinocytes and fibroblasts, Compound I and STI reduced, and SLIGRL increased, the number of microspheres ingested by these macrophages which are “professional phagocytic” cells.

Keratinocytes [3] = experiment: F-actin staining of keratinocytes; assay type: cell-based; settings: Compound I 10 nM, STI 0.1 mg/ml, SLIGRL 5 μM; FIG. 9
Method: Therefore, the organization of F-actin filaments following PAR-2 modulation was tested. Keratinocytes were treated with Compound I (10 nM), STI (0.1 mg/ml), or with SLIGRL (5 μM) as described in Example 1, and stained for F-actin using standard techniques.

Human keratinocytes = experiment: Keratinocyte microsphere phagocytosis dose-response, image analysis; assay type: cell-based; settings: two days; for phagocytosis with increasing concentrations: SLIGRL 0, 5 and 10M, Compound I 1 pM to 1 μM, STI 0.01 to 1 mg/ml; for % Ingestion: untreated = 100 +/− 12
Method: as §1
Dose-response Relationship Between PAR-2 Signaling and Keratinocyte Phagocytosis Human keratinocytes were treated with increasing concentrations of SLIGRL, the PAR-2 peptide activator and agonist, at 0, 5 and 10M for two days in the same manner as set forth in Example 1. […] Human keratinocytes were also treated with increasing concentrations of Compound I and STI for two days.
Image analysis of the fluorescent beads inside the keratinocytes was used as an alternative way to quantify the phagocytic effect in this system. Empire Imagins Database Version 1.1 was used on a Gateway 2000 P5-100 computer (Media Cybernetics, Silver Springs, Md.) for capturing images. Image Pro Plus version 1.3 was used for measurements, and Microsoft Excel version 5.0 was used for data processing. Data obtained from this keratinocyte-microsphere system were in full agreement with data from the macrophage/E. coli system.

[4] = tested on: human keratinocyte cell line HaCaT; experiment: Fluorescent microsphere ingestion by keratinocyte cell line HaCaT; assay type: cell-based; settings: FIG. 2
Method: In order to study the role of the PAR-2 pathway in phagocytosis, several in vitro model systems were used. One system used contained primary human keratinocytes or a human keratinocyte cell line. In this and a number of following examples, cells were treated with test compounds for different amounts of time (from one hour to three days), and samples were then incubated with fluorescent microspheres for two hours. The beads ingested by the cells were photographed using fluorescence microscopy.
as §1
The same results were also obtained when the human keratinocyte cell line HaCaT was used instead of the primary keratinocytes (see FIG. 2). SLIGRL, STI and Compound I were tested for their effect on keratinocyte phagocytosis. In these experiments, the extracellular accumulation of microspheres could be washed off. […]

Keratinocytes [5] = experiment: Melanin/melanosome uptake by keratinocytes, Fontana-Mason staining; assay type: cell-based; settings: treated two days, melanin two hours; FIG. 5A; same results with isolated melanosomes (FIG. 5B)
Method: This example tests the ability of keratinocytes to acquire melanin or melanosomes in vitro, and thus function as a simplified system for melanosome uptake in the skin. Keratinocytes were plated in glass chamber-slides as described earlier, and were treated for two days with SLIGRL, Compound I or STI. At that time, melanin powder (from Sigma, St. Louis, Mo.) was mixed in sterile PBS at 10 μg/ml, and was added to the culture media (1:10 dilution) for two hours. Cells were then washed with PBS and stained with Fontana-Mason (“F&M”) staining. F&M stains silver nitrate-reducing molecules, thereby permitting the identification of melanins inside the keratinocytes. […] This system, therefore, can mimic melanosome transfer and melanin distribution in vivo, as skin keratinocytes use melanin as an UV-protective cap over their nuclei. […] The same results were also observed using melanosomes isolated as described in S. Orlow, et al., J.I.D. 100:55-64 (1993) (FIG. 5B).

ICAM-1 = ICAM-1 immunofluorescent staining of keratinocytes; assay type: cell-based, human; settings: vs untreated keratinocytes; FIG. 6A
Method: Intercellular adhesion molecule-1 (ICAM-1) is an inducible cell-surface glycoprotein that is implicated in cell-cell adhesion, cell membrane raffling and phagocytosis. Therefore, the effect of PAR-2 modulation on ICAM-1 was tested. Keratinocytes were grown in chamber slides and treated with SLIGRL, Compound I and STI as described, followed by immunofluorescent staining for ICAM-1 using standard procedures. Normal donkey serum, (used at 1:5 dilution), was obtained from Jackson Immunoresearch Laboratory (Westgrove, Pa.). A polyclonal goat anti-human ICAM-1 antibody, (used at 1:200 dilution), was obtained from R&D Systems (Minneapolis, Minn.), and FITC-conjugated donkey anti-goat antibody was obtained from Jackson Immunoresearch Laboratory. […] In untreated keratinocytes, ICAM-1 was localized mainly to the plasma membrane, with some staining at the nuclear membrane.

Molecule	% effect (ingestion) [1]	number of microspheres ingested [2]	actin filaments organization (Keratinocytes [3])	phagocytosis with increasing concentrations (Human keratinocytes)	microsphere ingestion [4]	uptake (internalization) of melanin by keratinocytes (Keratinocytes [5])	intracellular localization of ICAM-1 (ICAM-1)	phagocytosis, dose-response [1]	% Ingestion (Human keratinocytes; STI 0.01%)	% Ingestion (Human keratinocytes; STI 0.1%)	% Ingestion (Human keratinocytes; STI 1%)
CN[C@H](Cc1ccccc1)C(=O)N1CCCC1C(=O)N[C@@H](CCCNC(=N)N)C(=O)c1nc2ccccc2s1 (stereo partly drawn) [Compound I, (S)-N-Methyl-D-phenylalanyl-N-[4-[(aminoiminomethyl)amino]-1-(2-benzothiazolylcarbonyl)butyl]-L-prolinamide]	89.9 +/− 13.6%	reduced	reduced the ordered organization of the cell cortex	dose-dependent decrease in phagocytosis	reduce microsphere ingestion	dramatically reduce the uptake of melanin	less staining was observed at the cytoplasmic membrane, and more at the nuclear membrane				
SLIGRL [reference compound]	331.6 +/− 5.9%	increased	induced actin polymerization around the cell cortex	increased phagocytosis	increased microsphere ingestion	dramatically increases the internalization of melanin	increased and more diffused cytoplasmic membrane staining, and reduced nuclear membrane staining	increase in phagocytosis			
B1	56.06 +/− 12.4%	reduced	reduced the ordered organization of the cell cortex	dose-dependent decrease in phagocytosis	reduce microsphere ingestion	dramatically reduce the uptake of melanin	less staining was observed at the cytoplasmic membrane, and more at the nuclear membrane	dose-response of decreased phagocytosis	76 +/− 15%	55 +/− 14%	41.6 +/− 11%
